{"source": "patent EP2057188B1", "about": "(priority 2006, dated 2008)", "key": {"[1]": {"format": "in vivo, NIH/Swiss mice", "details": "80 nmol/Kg; AUC240", "method": "Gavage (1.5g/kg) was given at t=0. Sample was taken at t=30 min."}, "[2]": {"details": "cited from earlier work; for EC(50): inhibition of gastric emptying, subcutaneous; for inhibition of gastric emptying: at doses of 100µg"}}, "note": "Read-outs that look alike come from different tables or passages of the source. Ends that are not written are not given here.", "data": [{"compound": "CC[C@H](C)[C@H](NC(=O)[C@H](CO)NC(=O)[C@H](Cc1ccc(O)cc1)NC(=O)[C@H](CC(=O)O)NC(=O)[C@H](CO)NC(=O)[C@@H](NC(=O)[C@H](Cc1ccccc1)NC(=O)[C@@H](NC(=O)CNC(=O)[C@H](CCC(=O)O)NC(=O)[C@@H](C)NC(=O)[C@@H](N)Cc1ccc(O)cc1)[C@@H](C)O)[C@@H](C)CC)C(=O)N[C@@H](C)C(=O)N[C@@H](CCSC)C(=O)N[C@@H](CC(=O)O)C(=O)N[C@@H](CCCCN)C(=O)N[C@H](C(=O)N[C@@H](Cc1c[nH]cn1)C(=O)N[C@@H](CCC(N)=O)C(=O)N[C@@H](CCC(N)=O)C(=O)N[C@@H](CC(=O)O)C(=O)N[C@@H](Cc1ccccc1)C(=O)N[C@H](C(=O)N[C@@H](CC(N)=O)C(=O)N[C@@H](Cc1c[nH]c2ccccc12)C(=O)N[C@@H](CC(C)C)C(=O)N[C@@H](CC(C)C)C(=O)N[C@@H](C)C(=O)N[C@@H](CCC(N)=O)C(=O)N[C@@H](CCCCN)C(=O)N1CCC[C@H]1C(=O)N[C@@H](CO)C(=O)N[C@@H](CO)C(=O)NCC(=O)N[C@@H](C)C(=O)N1CCC[C@H]1C(=O)NCC(=O)N1CCC[C@H]1C(=O)N[C@@H](CO)C(N)=O)C(C)C)[C@@H](C)CC", "note": "[0601 GIP49 52]", "values": [{"measurement": "Basal Glucose Lowering at 80 nmol/Kg", "setting": "[1]", "value": "-1, AUC2 40%"}]}, {"compound": "CSNLSTCVLGKLSQELHKLQTYPRTNTGSGTP [Salmon calcitonin]", "values": [{"measurement": "EC(50)", "setting": "[2]; conscious rats ~200g", "value": 0.19, "unit": "µg"}, {"measurement": "EC(50)", "setting": "[2]; conscious rats", "value": 0.28, "unit": "nmol/kg"}]}, {"compound": "^25,28,29Pro-h-amylin (KCNTATCATQRLANFLVHSSNNFGPILPPTNVGSNTY; chains of the INN, looked up) [Pramlintide]", "values": [{"measurement": "EC(50)", "setting": "[2]; conscious rats ~200g", "value": 0.07, "unit": "µg"}]}, {"compound": "CC[C@H](C)[C@H](NC(=O)[C@H](CO)NC(=O)[C@H](Cc1ccc(O)cc1)NC(=O)[C@H](CC(=O)O)NC(=O)[C@H](CO)NC(=O)[C@@H](NC(=O)[C@H](Cc1ccccc1)NC(=O)[C@@H](NC(=O)CNC(=O)[C@H](CCC(=O)O)NC(=O)[C@@H](C)NC(=O)[C@@H](N)Cc1ccc(O)cc1)[C@@H](C)O)[C@@H](C)CC)C(=O)N[C@@H](C)C(=O)N[C@@H](CCSC)C(=O)N[C@@H](CC(=O)O)C(=O)N[C@@H](CCCCN)C(=O)N[C@H](C(=O)N[C@@H](Cc1c[nH]cn1)C(=O)N[C@@H](CCC(N)=O)C(=O)N[C@@H](CCC(N)=O)C(=O)N[C@@H](CC(=O)O)C(=O)N[C@@H](Cc1ccccc1)C(=O)N[C@H](C(=O)N[C@@H](CCC(N)=O)C(=O)N[C@@H](Cc1c[nH]c2ccccc12)C(=O)N[C@@H](CC(C)C)C(=O)N[C@@H](CC(C)C)C(=O)N[C@@H](C)C(=O)N[C@@H](CCC(N)=O)C(=O)N[C@@H](CCCCN)C(=O)N1CCC[C@H]1C(=O)N[C@@H](CO)C(=O)N[C@@H](CO)C(=O)NCC(=O)N[C@@H](C)C(=O)N1CCC[C@H]1C(=O)N1CCC[C@H]1C(=O)N1CCC[C@H]1C(=O)N[C@@H](CO)C(N)=O)C(C)C)[C@@H](C)CC", "note": "[0601 GIP48 46]", "values": [{"measurement": "Basal Glucose Lowering at 80 nmol/Kg", "setting": "[1]", "value": "-6%, AUC2 40"}]}, {"compound": "Rat calcitonin: peptide compared for inhibition of gastric emptying in conscious rats (CGNLSTCMLGTYTQDLNKFHTFPQTSIGVGAP; ends and bridges not checked; cysteine pairing not given here; UniProt P01257 85-116, looked up)", "values": [{"measurement": "EC(50)", "setting": "[2]; conscious rats ~200g", "value": 0.64, "unit": "µg"}, {"measurement": "EC(50)", "setting": "[2]; conscious rats", "value": 0.94, "unit": "nmol/kg"}]}, {"compound": "CC[C@H](C)[C@H](NC(=O)[C@H](CO)NC(=O)[C@H](Cc1ccc(O)cc1)NC(=O)[C@H](CC(=O)O)NC(=O)[C@H](CO)NC(=O)[C@@H](NC(=O)[C@H](Cc1ccccc1)NC(=O)[C@@H](NC(=O)CNC(=O)[C@H](CCC(=O)O)NC(=O)[C@@H](C)NC(=O)[C@@H](N)Cc1ccc(O)cc1)[C@@H](C)O)[C@@H](C)CC)C(=O)N[C@@H](C)C(=O)N[C@@H](CC(C)C)C(=O)N[C@@H](CC(=O)O)C(=O)N[C@@H](CCCCN)C(=O)N[C@H](C(=O)N[C@@H](CCCNC(=N)N)C(=O)N[C@@H](CCC(N)=O)C(=O)N[C@@H](CCC(N)=O)C(=O)N[C@@H](CCC(=O)O)C(=O)N[C@@H](Cc1ccccc1)C(=O)N[C@H](C(=O)N[C@@H](CC(N)=O)C(=O)N[C@@H](Cc1c[nH]c2ccccc12)C(=O)N[C@@H](CC(C)C)C(=O)N[C@@H](CC(C)C)C(=O)N[C@@H](C)C(=O)N[C@@H](CCC(N)=O)C(=O)N[C@@H](CCCCN)C(=O)N1CCC[C@H]1C(=O)N[C@@H](CCCCN)C(=O)N[C@@H](CCCCN)C(=O)N[C@H](C(=O)N[C@@H](CCCNC(=N)N)C(=O)N[C@@H](Cc1ccc(O)cc1)C(=O)N[C@@H](CO)C(N)=O)[C@@H](C)CC)C(C)C)[C@@H](C)CC", "note": "[0601GIP4539]", "values": [{"measurement": "Basal Glucose Lowering at 80 nmol/Kg", "setting": "[1]", "value": "-5%, AUC240"}]}, {"compound": "PACAP38: pituitary adenylate cyclase activating peptide (HSDGIFTDSYSRYRKQMAVKKYLAAVLGKRYKQRVKNK-NH2; ends and bridges not checked; UniProt P18509 132-169, looked up)", "values": [{"measurement": "inhibition of gastric emptying", "setting": "[2]", "value": "weakly active or inactive"}]}, {"compound": "CC[C@H](C)[C@H](NC(=O)[C@H](CO)NC(=O)[C@H](Cc1ccc(O)cc1)NC(=O)[C@H](CC(=O)O)NC(=O)[C@H](CO)NC(=O)[C@@H](NC(=O)[C@H](Cc1ccccc1)NC(=O)[C@@H](NC(=O)CNC(=O)[C@H](CCC(=O)O)NC(=O)[C@@H](C)NC(=O)[C@@H](N)Cc1ccc(O)cc1)[C@@H](C)O)[C@@H](C)CC)C(=O)N[C@@H](C)C(=O)N[C@@H](CCSC)C(=O)N[C@@H](CC(=O)O)C(=O)N[C@@H](CCCCN)C(=O)N[C@H](C(=O)N[C@@H](Cc1c[nH]cn1)C(=O)N[C@@H](CCC(N)=O)C(=O)N[C@@H](CCC(N)=O)C(=O)N[C@@H](CC(=O)O)C(=O)N[C@@H](Cc1ccccc1)C(=O)N[C@H](C(=O)N[C@@H](CC(N)=O)C(=O)N[C@@H](Cc1c[nH]c2ccccc12)C(=O)N[C@@H](CC(C)C)C(=O)N[C@@H](CC(C)C)C(=O)N[C@@H](C)C(=O)N[C@@H](CCC(N)=O)C(=O)N[C@@H](CCCCN)C(=O)NCCC(=O)NCCC(=O)N1CCC[C@H]1C(=O)N[C@@H](CCCCN)C(=O)N[C@@H](CCCCN)C(=O)N[C@H](C(=O)N[C@@H](CCCNC(=N)N)C(=O)N[C@@H](Cc1ccc(O)cc1)C(=O)N[C@@H](CO)C(N)=O)[C@@H](C)CC)C(C)C)[C@@H](C)CC", "note": "[0601GIP4648]", "values": [{"measurement": "Basal Glucose Lowering at 80 nmol/Kg", "setting": "[1]", "value": "-8%, AUC240"}]}, {"compound": "glucagon: peptide compared for inhibition of gastric emptying in conscious rats", "values": [{"measurement": "inhibition of gastric emptying", "setting": "[2]", "value": "weakly active or inactive"}]}, {"compound": "Secretin: peptide compared for inhibition of gastric emptying in conscious rats", "values": [{"measurement": "EC(50)", "setting": "[2]; conscious rats ~200g", "value": 1.87, "unit": "µg"}, {"measurement": "EC(50)", "setting": "[2]; conscious rats", "value": 3.09, "unit": "nmol/kg"}]}, {"compound": "CC[C@H](C)[C@H](NC(=O)[C@H](CO)NC(=O)[C@H](Cc1ccc(O)cc1)NC(=O)[C@H](CC(=O)O)NC(=O)[C@H](CO)NC(=O)[C@@H](NC(=O)[C@H](Cc1ccccc1)NC(=O)[C@@H](NC(=O)CNC(=O)[C@H](CCC(=O)O)NC(=O)[C@@H](C)NC(=O)[C@@H](N)Cc1ccc(O)cc1)[C@@H](C)O)[C@@H](C)CC)C(=O)N[C@@H](C)C(=O)N[C@@H](CCSC)C(=O)N[C@@H](CC(=O)O)C(=O)N[C@@H](CCCCN)C(=O)N[C@H](C(=O)N[C@@H](Cc1c[nH]cn1)C(=O)N[C@@H](CCC(N)=O)C(=O)N[C@@H](CCC(N)=O)C(=O)N[C@@H](CC(=O)O)C(=O)N[C@@H](Cc1ccccc1)C(=O)N[C@H](C(=O)N[C@@H](CC(N)=O)C(=O)N[C@@H](Cc1c[nH]c2ccccc12)C(=O)N[C@@H](CC(C)C)C(=O)N[C@@H](CC(C)C)C(=O)N[C@@H](C)C(=O)N[C@@H](CCC(N)=O)C(=O)N[C@@H](CCCCN)C(=O)N[C@H](C(=O)N[C@@H](CO)C(=O)N1CCC[C@H]1C(=O)N[C@@H](CCCNC(=N)N)C(=O)N1CCC[C@H]1C(=O)N1CCC[C@H]1C(=O)N[C@@H](CO)C(N)=O)[C@@H](C)O)C(C)C)[C@@H](C)CC", "note": "[Compound 0601GIP4236]", "values": [{"measurement": "Basal Glucose Lowering at 80 nmol/Kg", "setting": "[1]", "value": "-12%,"}]}, {"compound": "CC[C@H](C)[C@H](NC(=O)[C@H](CO)NC(=O)[C@H](Cc1ccc(O)cc1)NC(=O)[C@H](CC(=O)O)NC(=O)[C@H](CO)NC(=O)[C@@H](NC(=O)[C@H](Cc1ccccc1)NC(=O)[C@@H](NC(=O)CNC(=O)[C@H](CCC(=O)O)NC(=O)[C@@H](C)NC(=O)[C@@H](N)Cc1ccc(O)cc1)[C@@H](C)O)[C@@H](C)CC)C(=O)N[C@@H](C)C(=O)N[C@@H](CCSC)C(=O)N[C@@H](CC(=O)O)C(=O)N[C@@H](CCCCN)C(=O)N[C@H](C(=O)N[C@@H](Cc1c[nH]cn1)C(=O)N[C@@H](CCC(N)=O)C(=O)N[C@@H](CCC(N)=O)C(=O)N[C@@H](CC(=O)O)C(=O)N[C@@H](Cc1ccccc1)C(=O)N[C@H](C(=O)N[C@@H](CC(N)=O)C(=O)N[C@@H](Cc1c[nH]c2ccccc12)C(=O)N[C@@H](CC(C)C)C(=O)N[C@@H](CC(C)C)C(=O)N[C@@H](C)C(=O)N[C@@H](CCC(N)=O)C(=O)N[C@@H](CCCCN)C(=O)N1CCC[C@H]1C(=O)N[C@@H](CCCCN)C(=O)NCC(=O)N[C@@H](CCCCN)C(=O)NCC(=O)N[C@@H](CCCCN)C(=O)N[C@@H](CO)C(N)=O)C(C)C)[C@@H](C)CC", "note": "[0601GIP4700]", "values": [{"measurement": "Basal Glucose Lowering at 80 nmol/Kg", "setting": "[1]", "value": "-6%, AUC240"}]}, {"compound": "CC[C@H](C)[C@H](NC(=O)[C@H](CO)NC(=O)[C@H](Cc1ccc(O)cc1)NC(=O)[C@H](CC(=O)O)NC(=O)[C@H](CO)NC(=O)[C@@H](NC(=O)[C@H](Cc1ccccc1)NC(=O)[C@@H](NC(=O)CNC(=O)[C@H](CCC(=O)O)NC(=O)[C@@H](C)NC(=O)[C@@H](N)Cc1ccc(O)cc1)[C@@H](C)O)[C@@H](C)CC)C(=O)N[C@@H](C)C(=O)N[C@@H](CCSC)C(=O)N[C@@H](CC(=O)O)C(=O)N[C@@H](CCCCN)C(=O)N[C@H](C(=O)N[C@@H](Cc1c[nH]cn1)C(=O)N[C@@H](CCC(N)=O)C(=O)N[C@@H](CCC(N)=O)C(=O)N[C@@H](CC(=O)O)C(=O)N[C@@H](Cc1ccccc1)C(=O)N[C@H](C(=O)N[C@@H](CC(N)=O)C(=O)N[C@@H](Cc1c[nH]c2ccccc12)C(=O)N[C@@H](CC(C)C)C(=O)N[C@@H](CC(C)C)C(=O)N[C@@H](C)C(=O)N[C@@H](CCC(N)=O)C(=O)N[C@@H](CCCCN)C(=O)N1CCC[C@H]1C(=O)N[C@@H](CO)C(=O)N[C@@H](CCCCN)C(=O)N[C@@H](CCC(=O)O)C(=O)N[C@H](C(=O)N[C@H](C(=O)N[C@@H](CO)C(N)=O)[C@@H](C)CC)[C@@H](C)CC)C(C)C)[C@@H](C)CC", "note": "[Compound 0601GIP4234]", "values": [{"measurement": "Basal Glucose Lowering at 80 nmol/Kg", "setting": "[1]", "value": "-11%, AUC240"}]}]}
